{"source": "patent US12544395B2", "about": "“Combination compositions comprising a beta-lactamase inhibitor and uses thereof” (priority 2018, dated 2026)", "format_in_all_cases": "cell-based", "key": {"K. oxytoca 176877": {"system": "K. oxytoca 176877", "assay": "Broth microdilution MIC (strain enzymes: SHV-105)"}, "E. coli SI-V502": {"system": "E. coli SI-V502", "assay": "Broth microdilution MIC (strain enzymes: TEM-29, CTX-M15)"}, "K. pneumoniae ESBL 8 #1": {"system": "K. pneumoniae ESBL 8 #1", "assay": "Broth microdilution MIC (strain enzymes: TEM-1, SHV-12)"}, "K. pneumoniae BAA 1705": {"system": "K. pneumoniae BAA 1705", "assay": "Broth microdilution MIC (strain KPC-producing)"}, "E. coli 1924": {"system": "E. coli 1924", "assay": "Broth microdilution MIC (strain enzymes: TEM-12)"}, "E. coli SI-NO36": {"system": "E. coli SI-NO36", "assay": "Broth microdilution MIC (strain enzymes: SHV-11, TEM-1)"}, "[1]": {"system": "panel of ESBL-producing Enterobacteriaceae (40 strains)", "assay": "Broth microdilution MIC50/MIC90 summary over the panel", "settings": "with inhibitor at 1 μg/mL"}}, "data": [{"smiles": "CCC(=O)N[C@H]1Cc2cccc(C(=O)O)c2OB1O", "note": "[Compound 2, (R)-2-hydroxy-3-propionamido-3,4-dihydro-2H-benzo[e][1,2]oxaborinine-8-carboxylic acid]", "values": [{"measurement": "MIC of ceftibuten (CTB)", "setting": "K. oxytoca 176877; with inhibitor at 2 μg/mL", "result": 0.125, "unit": "µg/mL"}, {"measurement": "MIC of cefalexin (LEX)", "setting": "K. oxytoca 176877; with inhibitor at 4 μg/mL", "result": 1, "unit": "µg/mL"}, {"measurement": "MIC of cefdinir (CDR)", "setting": "K. oxytoca 176877; with inhibitor at 4 μg/mL", "result": 1, "unit": "µg/mL"}, {"measurement": "MIC of cefixime (CFM)", "setting": "K. oxytoca 176877; with inhibitor at 4 μg/mL", "result": 0.5, "unit": "µg/mL"}, {"measurement": "MIC of ceftibuten (CTB)", "setting": "K. oxytoca 176877; with inhibitor at 4 μg/mL", "result": 0.25, "unit": "µg/mL"}, {"measurement": "MIC of cefalexin (LEX)", "setting": "E. coli SI-V502; with inhibitor at 1 μg/mL", "result": 1, "unit": "µg/mL"}, {"measurement": "MIC of cefdinir (CDR)", "setting": "E. coli SI-V502; with inhibitor at 1 μg/mL", "result": 1, "unit": "µg/mL"}, {"measurement": "MIC of cefixime (CFM)", "setting": "E. coli SI-V502; with inhibitor at 1 μg/mL", "result": 0.25, "unit": "µg/mL"}, {"measurement": "MIC of ceftibuten (CTB)", "setting": "E. coli SI-V502; with inhibitor at 1 μg/mL", "result": 0.25, "unit": "µg/mL"}, {"measurement": "MIC of cefalexin (LEX)", "setting": "E. coli SI-V502; with inhibitor at 2 μg/mL", "result": 0.5, "unit": "µg/mL"}, {"measurement": "MIC of cefdinir (CDR)", "setting": "E. coli SI-V502; with inhibitor at 2 μg/mL", "result": 0.5, "unit": "µg/mL"}, {"measurement": "MIC of cefixime (CFM)", "setting": "E. coli SI-V502; with inhibitor at 2 μg/mL", "result": 0.5, "unit": "µg/mL"}, {"measurement": "MIC of ceftibuten (CTB)", "setting": "E. coli SI-V502; with inhibitor at 2 μg/mL", "result": 0.25, "unit": "µg/mL"}, {"measurement": "MIC of cefalexin (LEX)", "setting": "E. coli SI-V502; with inhibitor at 4 μg/mL", "result": 0.5, "unit": "µg/mL"}, {"measurement": "MIC of cefdinir (CDR)", "setting": "E. coli SI-V502; with inhibitor at 4 μg/mL", "result": 0.5, "unit": "µg/mL"}, {"measurement": "MIC of cefixime (CFM)", "setting": "E. coli SI-V502; with inhibitor at 4 μg/mL", "result": 0.25, "unit": "µg/mL"}, {"measurement": "MIC of ceftibuten (CTB)", "setting": "E. coli SI-V502; with inhibitor at 4 μg/mL", "result": 0.125, "unit": "µg/mL"}, {"measurement": "MIC of cefalexin (LEX)", "setting": "K. pneumoniae ESBL 8 #1; with inhibitor at 1 μg/mL", "result": 0.25, "unit": "µg/mL"}, {"measurement": "MIC of cefdinir (CDR)", "setting": "K. pneumoniae ESBL 8 #1; with inhibitor at 1 μg/mL", "result": 0.25, "unit": "µg/mL"}, {"measurement": "MIC of cefixime (CFM)", "setting": "K. pneumoniae ESBL 8 #1; with inhibitor at 1 μg/mL", "result": 2, "unit": "µg/mL"}, {"measurement": "MIC of ceftibuten (CTB)", "setting": "K. pneumoniae ESBL 8 #1; with inhibitor at 1 μg/mL", "result": 0.25, "unit": "µg/mL"}, {"measurement": "MIC of cefalexin (LEX)", "setting": "K. pneumoniae ESBL 8 #1; with inhibitor at 2 μg/mL", "result": 0.125, "unit": "µg/mL"}, {"measurement": "MIC of cefdinir (CDR)", "setting": "K. pneumoniae ESBL 8 #1; with inhibitor at 2 μg/mL", "result": 0.125, "unit": "µg/mL"}, {"measurement": "MIC of cefixime (CFM)", "setting": "K. pneumoniae ESBL 8 #1; with inhibitor at 2 μg/mL", "result": 0.5, "unit": "µg/mL"}, {"measurement": "MIC of ceftibuten (CTB)", "setting": "K. pneumoniae ESBL 8 #1; with inhibitor at 2 μg/mL", "result": 0.125, "unit": "µg/mL"}, {"measurement": "MIC of cefalexin (LEX)", "setting": "K. pneumoniae ESBL 8 #1; with inhibitor at 4 μg/mL", "result": 0.25, "unit": "µg/mL"}, {"measurement": "MIC of cefdinir (CDR)", "setting": "K. pneumoniae ESBL 8 #1; with inhibitor at 4 μg/mL", "result": 0.25, "unit": "µg/mL"}, {"measurement": "MIC of cefixime (CFM)", "setting": "K. pneumoniae ESBL 8 #1; with inhibitor at 4 μg/mL", "result": 0.25, "unit": "µg/mL"}, {"measurement": "MIC of ceftibuten (CTB)", "setting": "K. pneumoniae ESBL 8 #1; with inhibitor at 4 μg/mL", "result": 0.06, "unit": "µg/mL"}, {"measurement": "MIC of cefalexin (LEX)", "setting": "K. pneumoniae BAA 1705; with inhibitor at 1 μg/mL", "result": 4, "unit": "µg/mL"}, {"measurement": "MIC of cefdinir (CDR)", "setting": "K. pneumoniae BAA 1705; with inhibitor at 1 μg/mL", "result": 4, "unit": "µg/mL"}, {"measurement": "MIC of cefixime (CFM)", "setting": "K. pneumoniae BAA 1705; with inhibitor at 1 μg/mL", "result": 0.5, "unit": "µg/mL"}, {"measurement": "MIC of ceftibuten (CTB)", "setting": "K. pneumoniae BAA 1705; with inhibitor at 1 μg/mL", "result": 0.5, "unit": "µg/mL"}, {"measurement": "MIC of cefalexin (LEX)", "setting": "K. pneumoniae BAA 1705; with inhibitor at 2 μg/mL", "result": 2, "unit": "µg/mL"}, {"measurement": "MIC of cefdinir (CDR)", "setting": "K. pneumoniae BAA 1705; with inhibitor at 2 μg/mL", "result": 2, "unit": "µg/mL"}, {"measurement": "MIC of cefixime (CFM)", "setting": "K. pneumoniae BAA 1705; with inhibitor at 2 μg/mL", "result": 0.5, "unit": "µg/mL"}, {"measurement": "MIC of ceftibuten (CTB)", "setting": "K. pneumoniae BAA 1705; with inhibitor at 2 μg/mL", "result": 0.5, "unit": "µg/mL"}, {"measurement": "MIC of cefalexin (LEX)", "setting": "K. pneumoniae BAA 1705; with inhibitor at 4 μg/mL", "result": 1, "unit": "µg/mL"}, {"measurement": "MIC of cefdinir (CDR)", "setting": "K. pneumoniae BAA 1705; with inhibitor at 4 μg/mL", "result": 1, "unit": "µg/mL"}, {"measurement": "MIC of cefixime (CFM)", "setting": "K. pneumoniae BAA 1705; with inhibitor at 4 μg/mL", "result": 0.25, "unit": "µg/mL"}, {"measurement": "MIC of ceftibuten (CTB)", "setting": "K. pneumoniae BAA 1705; with inhibitor at 4 μg/mL", "result": 0.25, "unit": "µg/mL"}, {"measurement": "MIC of cefalexin (LEX)", "setting": "E. coli 1924; with inhibitor at 1 μg/mL", "result": 0.5, "unit": "µg/mL"}, {"measurement": "MIC of cefdinir (CDR)", "setting": "E. coli 1924; with inhibitor at 1 μg/mL", "result": 0.5, "unit": "µg/mL"}, {"measurement": "MIC of cefixime (CFM)", "setting": "E. coli 1924; with inhibitor at 1 μg/mL", "result": 0.5, "unit": "µg/mL"}, {"measurement": "MIC of ceftibuten (CTB)", "setting": "E. coli 1924; with inhibitor at 1 μg/mL", "result": 0.125, "unit": "µg/mL"}, {"measurement": "MIC of cefalexin (LEX)", "setting": "E. coli 1924; with inhibitor at 2 μg/mL", "result": 0.25, "unit": "µg/mL"}, {"measurement": "MIC of cefdinir (CDR)", "setting": "E. coli 1924; with inhibitor at 2 μg/mL", "result": 0.25, "unit": "µg/mL"}, {"measurement": "MIC of cefixime (CFM)", "setting": "E. coli 1924; with inhibitor at 2 μg/mL", "result": 0.5, "unit": "µg/mL"}, {"measurement": "MIC of ceftibuten (CTB)", "setting": "E. coli 1924; with inhibitor at 2 μg/mL", "result": 0.25, "unit": "µg/mL"}, {"measurement": "MIC of cefalexin (LEX)", "setting": "E. coli 1924; with inhibitor at 4 μg/mL", "result": 0.25, "unit": "µg/mL"}, {"measurement": "MIC of cefdinir (CDR)", "setting": "E. coli 1924; with inhibitor at 4 μg/mL", "result": 0.25, "unit": "µg/mL"}, {"measurement": "MIC of cefixime (CFM)", "setting": "E. coli 1924; with inhibitor at 4 μg/mL", "result": 0.25, "unit": "µg/mL"}, {"measurement": "MIC of ceftibuten (CTB)", "setting": "E. coli 1924; with inhibitor at 4 μg/mL", "result": 0.125, "unit": "µg/mL"}, {"measurement": "MIC of cefalexin (LEX)", "setting": "E. coli SI-NO36; with inhibitor at 1 μg/mL", "result": 0.125, "unit": "µg/mL"}, {"measurement": "MIC of cefdinir (CDR)", "setting": "E. coli SI-NO36; with inhibitor at 1 μg/mL", "result": 0.125, "unit": "µg/mL"}, {"measurement": "MIC of cefixime (CFM)", "setting": "E. coli SI-NO36; with inhibitor at 1 μg/mL", "result": 0.5, "unit": "µg/mL"}, {"measurement": "MIC of ceftibuten (CTB)", "setting": "E. coli SI-NO36; with inhibitor at 1 μg/mL", "result": 0.06, "unit": "µg/mL"}, {"measurement": "MIC of cefalexin (LEX)", "setting": "E. coli SI-NO36; with inhibitor at 2 μg/mL", "result": 0.125, "unit": "µg/mL"}, {"measurement": "MIC of cefdinir (CDR)", "setting": "E. coli SI-NO36; with inhibitor at 2 μg/mL", "result": 0.125, "unit": "µg/mL"}, {"measurement": "MIC of cefixime (CFM)", "setting": "E. coli SI-NO36; with inhibitor at 2 μg/mL", "result": 0.25, "unit": "µg/mL"}, {"measurement": "MIC of ceftibuten (CTB)", "setting": "E. coli SI-NO36; with inhibitor at 2 μg/mL", "result": 0.125, "unit": "µg/mL"}, {"measurement": "MIC of cefalexin (LEX)", "setting": "E. coli SI-NO36; with inhibitor at 4 μg/mL", "result": 0.25, "unit": "µg/mL"}, {"measurement": "MIC of cefdinir (CDR)", "setting": "E. coli SI-NO36; with inhibitor at 4 μg/mL", "result": 0.25, "unit": "µg/mL"}, {"measurement": "MIC of cefixime (CFM)", "setting": "E. coli SI-NO36; with inhibitor at 4 μg/mL", "result": 0.5, "unit": "µg/mL"}, {"measurement": "MIC of ceftibuten (CTB)", "setting": "E. coli SI-NO36; with inhibitor at 4 μg/mL", "result": 0.06, "unit": "µg/mL"}, {"measurement": "Cefdinir MIC50", "setting": "[1]", "result": 0.5, "unit": "µg/mL"}, {"measurement": "Cefdinir MIC90", "setting": "[1]", "result": 4, "unit": "µg/mL"}, {"measurement": "Cefixime MIC50", "setting": "[1]", "result": 1, "unit": "µg/mL"}]}]}
